Assay results published in patent US20080176857A1, “4-Piperazinnylthieno[2,3-d]Pyrimidine Compounds as Platelet Aggregation Inhibitors” (priority 2005, published 2008).

Biological target: P2Y12 receptor (Homo sapiens, UniProt Q9H244)
Test: [33P]2MeS-ADP binding to washed human platelet membranes (Assay 1)
Set-up: the P2Y12 receptor, which is found on the surface of platelets; tissue Interstate Blood bank, Memphis, Tenn; host or cells: washed human platelets from platelet rich plasma
Details: for inhibition at 10 µM: at highest concentration tested
Experimental: 1. Inhibition of [^33P]2MeS-ADP Binding to Washed Human Platelet Membranes. The ability of a test compound to bind to the P2Y12 receptor was evaluated in a platelet membrane binding assay. In this competitive binding assay, the test compound competed against a radiolabelled agonist for binding to the P2Y12 receptor, which is found on the surface of platelets. Inhibition of binding of the labeled material was measured and correlated to the amount and potency of the test compound. Data from this assay are presented in Table F. Platelet rich plasma (“PRP”) was obtained from the Interstate Blood bank, Memphis, Tenn. Platelet rich plasma was prepared from blood units collected in ACD ((prepared by (1) combining: 2.5 g sodium citrate (Sigma S-4641); 1.5 g citric acid (Sigma C-0706); and, 2.0 g dextrose (Sigma G-7528); (2) bringing pH to 4.5; and (3) adding water to bring volume to 100 mL) and using the light spin protocol; this protocol involves centrifugation at room temperature for approximately 20 minutes at speeds up to 160×g. Platelet rich plasma is supplied in units of approximately 200 ml. Each unit is distributed into four 50 mL polypropylene conical tubes for centrifugation. Blood from each donor is maintained separately.
The 50 mL tubes were centrifuged for 15 minutes at 1100 rpm in Sorvall RT6000D (with H1000B rotor). Internal centrifuge temperature was maintained at approximately room temperature (22-24° C.). This spin pelleted cellular components remaining from the PRP preparation.
The supernatant was decanted into fresh 50 mL tubes. To avoid carry over of cellular components following the room temperature centrifugation, approximately 5 mL of PRP was left in the tube and discarded. The tubes were capped and inverted 2-3 times and allowed to stand at room temperature for at least 15 minutes following inversion.
Optionally, a Coulter Counter may be used to count platelets from the resting samples during the resting phase. Normal human platelet counts are expected to range from 200,000 to 400,000 per μL of PRP supernatant.
The 50 mL tubes containing PRP supernatant were centrifuged for 15 minutes at 2300-2400 rpm to loosely pellet the platelets. The supernatant from this spin was decanted immediately into a clean cell culture bottle (Corning bottle) and saved in case further centrifugation was needed. The pellet of each tube was resuspended in 2-4 mL of Wash buffer (pH 6.5) (1 L prepared new daily—134 mM NaCl (Sigma S-5150); 3 mM KCl (Sigma P-9333); 1 mM CaCl2 (JT Baker 1311-01); 2 mM MgCl2 (Sigma M-2670); 5 mM glucose (EM 4074-2); 0.3 mM NaH2PO4 (Sigma S-9638)/12 mM NaHCO3 (JT Baker 3506-01); 5 mM HEPES pH 7.4 (Gibco 12379-012); 0.35% BSA (Sigma A-7906); 330 mg Heparin (bovine lung, Sigma H-4898); and 30 mL of ACD) by repeated gentle aspiration using disposable polypropylene sample pipettes.
Wash buffer (pH 6.5) was added to each tube to bring the volume to approximately 40 mL. Each tube was incubated for at least 15 minutes at 37° C.
The tubes were then centrifuged again for 15 minutes at 2300-2400 rpm to loosely pellet the platelets. The supernatant was decanted and discarded. The pellet was resuspended in 2-4 mL of Assay buffer (pH 7.4) (1 L volume—134 mM NaCl; 3 mM KCl; 1 mM CaCl2; 2 mM MgCl2; 5 mM glucose; 0.3 mM NaH2PO4/12 mM NaHCO3; 5 mM HEPES pH 7.4; and 0.35% BSA) by repeated aspiration using disposable polypropylene sample pipettes.
The pooled platelet preparation was counted using a Coulter Counter. […]

[1] = washed human platelet membranes, competition with [33P]2MeS-ADP

Sequence of P2Y12 receptor (Q9H244 whole entry): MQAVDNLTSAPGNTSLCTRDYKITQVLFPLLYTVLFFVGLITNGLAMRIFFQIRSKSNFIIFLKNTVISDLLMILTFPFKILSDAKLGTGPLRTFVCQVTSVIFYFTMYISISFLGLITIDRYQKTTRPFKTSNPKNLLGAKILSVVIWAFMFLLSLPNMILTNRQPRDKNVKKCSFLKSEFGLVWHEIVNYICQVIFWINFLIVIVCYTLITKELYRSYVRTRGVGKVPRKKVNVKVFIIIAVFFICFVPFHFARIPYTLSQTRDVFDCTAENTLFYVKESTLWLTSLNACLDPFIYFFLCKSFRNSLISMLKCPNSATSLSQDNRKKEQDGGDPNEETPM

SMILES	inhibition at 10 µM [%]	IC50 [1] [µM]	Ki [1] [µM]
CCc1cc2c(N3CCN(C(=O)Cc4ccccc4)CC3)nc(SCc3ccccc3)nc2s1 [Example 85, 2-(benzylthio)-6-ethyl-4-[4-(phenylacetyl)piperazin-1-yl]thieno[2,3-d]pyrimidine]	39.5	> 10	–
CCc1cc2c(N3CCN(C(=O)Cc4ccccc4)CC3)nc(SCc3ccco3)nc2s1 [Example 86, 6-ethyl-2-[(2-furylmethyl)thio]-4-[4-(phenylacetyl)piperazin-1-yl]thieno[2,3-d]pyrimidine]	52.9	7.93	7.51
